In patent US20260183350A1, “ANTIBIOTIC-RESISTANT BACTERIA” (priority 2022, published 2026):

What was measured:
[1] = tested on: NDM-1 Enterobacter cloacae; assay: Carbon utilisation assay; assay type: cell-based; details: anaerobic; M9 minimal medium, 0.5% (w/v) carbon source
Description: (§1) New Delhi Metallo-β-lactamase 1 (NDM-1) Escherichia coli, NDM-1 Klebsiella pneumoniae, and NDM-1 Enterobacter cloacae were isolated from patients with intestinal CRE colonisation from the Imperial College Healthcare NHS Trust via rectal swab (REC ref. 19/LO/0112). The species were assigned by matrix assisted laser desorption ionization-time of flight (MALDI-TOF) mass spectrometry and later confirmed with 16S rRNA gene sequencing. CRE status was determined using X-pert Carba-R PCR detection (Cepheid, Sunnyvale, CA, USA), (Otter, J. A. et al. Detecting carbapenemase-producing Enterobacterales (CPE): an evaluation of an enhanced CPE infection control and screening programme in acute care. J Antimicrob Chemother 75, 2670-2676 (2020)).
(§2) Growth of CRE isolates on sole carbon or nitrogen sources was tested by inoculating each CRE isolate into a minimal medium supplemented with the nutrient of interest. First, CRE isolates were passaged from frozen glycerol stocks on Reasoner's 2A agar (R2A) plates. Cells were then suspended in M9 minimal media to a turbidity of 42% using a Turbidimeter (Biolog Inc.), then diluted a further 1 in 6 to inoculate the carbon or nitrogen utilisation assays. M9 minimal media contained the following (at final concentrations): 22 mM KH2PO4, 42 mM Na2HPO4, 9 mM NaCl, 0.49 mM MgSO4·7H2O, 0.09 mM CaCl2), 0.011 mM FeSO4·7H2O. For the carbon assays the M9 minimal medium was also supplemented with 0.1% (w/v) NH4Cl (as the nitrogen source) and the carbon sources were individually tested at 0.5% (w/v) concentration. For the nitrogen assays the M9 minimal medium was also supplemented with 0.5% (w/v) glucose (as the carbon source) and the nitrogen sources were individually tested at 0.1% (w/v) concentration. Cultures were incubated anaerobically and aerobically in a plate reader and OD600 readings were collected every 15 minutes for 24 hours.
(§3) Growth curves were analysed in Python (v3.6.5) using the AMiGA software (Midani, F. S., Collins, J. & Britton, R. A. AMiGA: Software for Automated Analysis of Microbial Growth Assays. mSystems 6, e0050821 (2021)). Growth of each isolate was measured with 6 wells from 2-3 independent experiments. Growth curves were normalised to the no substrate control using the subtraction method. AMiGA performed Gaussian Process regression to test differential growth between the substrate and the no substrate control. The functional difference in the OD (and its credible interval) was also computed between the substrate and the no substrate control.

[2] = tested on: NDM-1 Klebsiella pneumoniae; assay: Carbon utilisation assay; assay type: cell-based; details: M9 minimal medium, 0.5% (w/v) carbon source
Description: as §1, §2, §3

[3] = tested on: NDM-1 Escherichia coli; assay: Carbon utilisation assay; assay type: cell-based; details: M9 minimal medium, 0.5% (w/v) carbon source
Description: as §1, §2, §3

[4] = tested on: NDM-1 Enterobacter cloacae; assay: Nitrogen utilisation assay; assay type: cell-based; details: anaerobic; M9 minimal medium with glucose, 0.1% (w/v) nitrogen source
Description: as §1, §2, §3

[5] = tested on: NDM-1 Klebsiella pneumoniae; assay: Nitrogen utilisation assay; assay type: cell-based; details: M9 minimal medium with glucose, 0.1% (w/v) nitrogen source
Description: as §1, §2, §3

[6] = tested on: NDM-1 Escherichia coli; assay: Nitrogen utilisation assay; assay type: cell-based; details: anaerobic; M9 minimal medium with glucose, 0.1% (w/v) nitrogen source
Description: as §1, §2, §3

[7] = tested on: vancomycin-resistant E. faecalis; assay: VRE nutrient utilization protocol: carbon sources; assay type: cell-based, Enterococcus faecalis; details: aerobic; VRE minimal medium
Description: (§4) VRE minimal media consists of potassium phosphate monobasic (4 g/L), potassium phosphate dibasic (14 g/L), sodium citrate (1 g/L), magnesium sulphate (0.2 g/L), ammonium sulphate (2 g/L), adenosine (0.04 g/L), thymine (0.04 g/L), Kao and Michayluk vitamin solution [Sigma, K3129, 50× Stock](5×), glucose (1 g/L) and amino acid solution [Sigma, R7131, RPMI-1640, 50×](25×). If the study was performed under anaerobic conditions, fumarate (5.2 g/L) was added to increase growth of VRE strains. Carbon-free minimal media was prepared by leaving out glucose while nitrogen-free minimal media was prepared without the amino acid solution. Media was filter sterilized with a 0.22 micron filter and used immediately aerobically or degassed overnight if used anaerobically.
(§5) VRE strains were grown on R2A overnight before the cells were suspended in 0.9% saline to an OD of 0.38 (λ=595 nm). A 10% dilution of the cell suspension was prepared using VRE minimal media to achieve a final well OD of […] (λ=595 nm) greater than the sterile media OD. Both carbon and nitrogen source utilization were evaluated by adding the inoculated media and a filter-sterilised nutrient source solution into a well in a 1:1 ration to a final volume of 100 μL in aerobic tests and 200 μL in anaerobic tests. Carbon sources were tested individually and compared to a carbon-free control. To test nitrogen source utilization, a nitrogen source solution was prepared containing L-alanine (2 g/L), L-arginine (2.5 g/L, L-asparagine (0.71 g/L), L-aspartate (0.25 g/L), L-cysteine (0.625 g/L), L-glutamate (0.25 g/L), L-Glycine (0.125 g/L), L-histidine (0.1875 g/L), L-isoleucine (0.625 g/L), L-leucine (0.625 g/L), L-lysine HCl (0.5 g/L), L-methionine (0.1875 g/L), L-phenylalanine (0.1875 g/L), L-proline (0.25 g/L), L-serine (0.375 g/L), L-threonine (0.25 g/L), L-tryptophan (0.0625 g/L), L-tyrosine (0.29 g/L), L-valine (0.25 g/L), N-acetylglucosamine (2 g/L), and uracil (2.5 g/L). To test the strains' ability to utilize individual nitrogen sources, separate solutions were prepared eliminating one nitrogen source each. The change in growth compared to the complete nitrogen source solution control was used to determine nitrogen utilization. All carbon and nitrogen sources were tested in a technical triplicate for each biological replicate. Aerobic plates were incubated with a plate seal while anaerobic plates were not. The aerobic plate reader was set to read the plate (λ=595 nm, 37° C., 22 flashes per well, orbital shaking of 100 rpm for 15 s prior to each read) every 15 minutes for 24 hours. The anaerobic plate reader read the plate (λ=595 nm, 37° C., stationary) every 15 minutes for 24 hours.

[8] = tested on: vancomycin-resistant E. faecium; assay: VRE nutrient utilization protocol: carbon sources; assay type: cell-based, Enterococcus faecium; details: aerobic; VRE minimal medium
Description: as §4, §5

[9] = tested on: NDM-1 Enterobacter cloacae; assay: Individual metabolite inhibition assay; assay type: cell-based; details: LB pH 6.5, 16 hours anaerobic
Description: as §1
(§6) Each metabolite was tested individually in an inhibition assay against each CRE isolate. Each metabolite was tested at three concentrations: the low, average, and high concentrations that were measured in healthy faeces (from Table 1). LB was supplemented with each metabolite (at the three different concentrations) and compared to a no metabolite control. […] Overnight cultures of each CRE isolate were inoculated at 10^3 CFU/ml. Cultures were incubated anaerobically for 16 hours at 37° C. Growth was measured at OD600 after 16 hours of incubation. Growth of the CRE isolate in the presence of each metabolite was compared to the no metabolite control using a one-way ANOVA followed by Dunn's multiple comparison test.

[10] = tested on: NDM-1 Klebsiella pneumoniae; assay: Individual metabolite inhibition assay; assay type: cell-based; details: LB pH 6.5, 16 hours anaerobic
Description: as §1, §6

[11] = tested on: NDM-1 Escherichia coli; assay: Individual metabolite inhibition assay; assay type: cell-based; details: LB pH 6.5, 16 hours anaerobic
Description: as §1, §6

[12] = tested on: NDM-1 Escherichia coli; assay: Nutrient preference assay (nutrient mixture); assay type: cell-based; details: aerobic; M9 with […] of each nutrient, up to 24 hours
Description: as §1
CRE isolates were passaged once from frozen glycerol stocks on R2A plates. Cells were suspended in M9 minimal media to a turbidity of 42% using a Turbidimeter (Biolog Inc.), then diluted 1 in 6 to inoculate the nutrient preference assays. M9 minimal media was supplemented with 0.015% of each of the following: L-arabinose, D-fructose, L-fucose, D-galactose, D-glucose, D-mannose, D-ribose, D-xylose, N-acetylglucosamine, D-maltose, sucrose, D-trehalose, L-alanine, L-arginine, L-aspartate, L-glutamate, L-glycine, L-isoleucine, L-leucine, L-lysine, L-methionine, L-phenylalanine, L-proline, L-threonine, L-tryptophan, L-tyrosine, L-valine, uracil, and succinate. Cultures were incubated anaerobically and aerobically in a plate reader and OD600 readings were collected every 15 minutes for 24 hours. Cultures were also incubated anaerobically and aerobically for 24 h and samples were collected at 0, 4, 8, and 24 hours post-inoculation for 1H-NMR spectroscopy. Changes in nutrients and metabolites by CRE isolates was compared to the sterile media control over time using a two-way mixed ANOVA followed by pairwise comparisons with Bonferroni correction. […]

[13] = at average and high concentrations (Table 1)
[14] = at low, average, and high concentrations (Table 1)

Row | SMILES | Use as sole carbon source to support E. cloacae growth [1] | Use as sole carbon source to support K. pneumoniae growth ([2]; anaerobic) | Use as sole carbon source to support E. coli growth ([3]; anaerobic) | Use as sole carbon source to support E. faecalis growth [7] | Use as sole carbon source to support E. faecium growth [8] | K. pneumoniae growth (OD600) with individual metabolite [10, 13] | further results
1 | CC(=O)N[C@H]1C(O)O[C@H](CO)[C@@H](O)[C@@H]1O (stereo partly shown) [N-acetylglucosamine] | could use | could use | could use | could use | could use |  | Use as sole nitrogen source to support E. cloacae growth [4]: could use; Use as sole nitrogen source to support K. pneumoniae growth ([5]; aerobic): not able to use; Use as sole nitrogen source to support K. pneumoniae growth ([5]; anaerobic): could use; Use as sole nitrogen source to support E. coli growth [6]: could use
2 | CC(=O)O [acetate] |  |  |  |  |  | inhibited | E. cloacae growth (OD600) with individual metabolite [9, 13]: inhibited; E. coli growth (OD600) with individual metabolite [11, 14]: inhibited
3 | CCCC(=O)O [butyrate] |  |  |  |  |  |  | E. cloacae growth (OD600) with individual metabolite [9, 14]: inhibited; K. pneumoniae growth (OD600) with individual metabolite [10, 14]: inhibited; E. coli growth (OD600) with individual metabolite ([11]; at high concentrations (Table 1)): inhibited
4 | CCO [ethanol] |  |  |  |  |  |  | E. cloacae growth (OD600) with individual metabolite ([9]; at the high concentration (Table 1)): inhibited; E. coli growth (OD600) with individual metabolite [11, 13]: inhibited
5 | O=C(CO)[C@@H](O)[C@H](O)[C@H](O)CO [fructose, D-fructose] | could use | could use | could use | could use | could use |  | 
6 | O=C[C@H](O)[C@@H](O)[C@@H](O)[C@H](O)CO [galactose, D-galactose] | could use | could use | could use | could use | could use |  | 
7 | CC(C)C(=O)O [isobutyrate] |  |  |  |  |  | inhibited | E. cloacae growth (OD600) with individual metabolite [9, 13]: inhibited
8 | OC[C@H]1O[C@H](O[C@H]2[C@H](O)[C@@H](O)[C@H](O)O[C@@H]2CO)[C@H](O)[C@@H](O)[C@@H]1O [maltose, D-maltose] | could use | could use |  | could use | could use |  | Use as sole carbon source to support E. coli growth ([3]; aerobic): able to grow
9 | CCC(=O)O [propionate] |  |  |  |  |  | inhibited | E. cloacae growth (OD600) with individual metabolite [9, 13]: inhibited; E. coli growth (OD600) with individual metabolite [11, 13]: inhibited
10 | O=C[C@H](O)[C@H](O)[C@H](O)CO [ribose, D-ribose] | could use |  |  | could use | could use |  | Use as sole carbon source to support K. pneumoniae growth ([2]; aerobic): able to grow; Use as sole carbon source to support E. coli growth ([3]; aerobic): able to grow
11 | OC[C@H]1O[C@@](CO)(O[C@H]2O[C@H](CO)[C@@H](O)[C@H](O)[C@H]2O)[C@@H](O)[C@@H]1O [sucrose] | could use | could use |  | could use |  |  | Use as sole carbon source to support E. coli growth ([3]; aerobic): able to grow; Utilisation of nutrient by E. coli from nutrient mixture (1H-NMR) [12]: moderate utilisation
12 | OC[C@H]1O[C@H](O[C@H]2O[C@H](CO)[C@@H](O)[C@H](O)[C@H]2O)[C@H](O)[C@@H](O)[C@@H]1O [trehalose, D-trehalose] | could use | could use | could use | could use | could use |  | 
13 | CCCCC(=O)O [valerate] |  |  |  |  |  | inhibited | E. cloacae growth (OD600) with individual metabolite [9, 14]: inhibited; E. coli growth (OD600) with individual metabolite [11, 13]: inhibited
